This data set has as its system rodent carcinogenicity bioassays, tumor incidence. Description: CCRIS carcinogenicity studies. From the text:
The CCRIS database contains chemical records with carcinogenicity, mutagenicity, tumor promotion, and tumor inhibition test results. It was developed by the National Cancer Institute (NCI). Data are derived from studies cited in primary journals, current awareness tools, NCI reports, and other sources. Test results have been reviewed by experts in carcinogenesis and mutagenesis.
CCRIS provides historical information from the years 1985 - 2011. It is no longer updated.
This is an archive assay for CCRIS carcinogenicity studies.

Active and inactive are the calls of the source. The rule behind the calls is not given here.

The record followed here is PubChem BioAssay AID1259411 (Chemical Carcinogenesis Research Information System (CCRIS), 2018).

As to `O=C([O-])CN(CC(=O)[O-])CC(=O)[O-].[Cu+2]`, the carcinogen call (Species: RAT, Strain/Sex: WISTAR/MALE, Route: INTRAPERITONEAL, Tumor Site: Type of Lesion: KIDNEY: RENAL CELL CARCINOMA) is “active; positive”.
As for `CC(=O)CN(N=O)C(=O)NCCCl`, the carcinogen call by setting is: (Species: RAT, Strain/Sex: F344/FEMALE, Route: GAVAGE, Dose: 0, 11.5 MG/ML IN CORN OIL/ETHYL ACETATE (2:1) 2/WK FOR 30 WK (STUDY DURATION: LIFETIME), Tumor Site: Type of Lesion: LIVER: TUMOR) “active; positive”; (Species: RAT, Strain/Sex: F344/FEMALE, Route: ORAL, Dose: 0, 46 MG/L IN DRINKING WATER 5 D/WK FOR 30 WK (STUDY DURATION: LIFETIME)) “inactive; negative”; (Species: RAT, Strain/Sex: F344/MALE, Route: GAVAGE, Dose: 0, 11.5 MG/ML IN CORN OIL/ETHYL ACETATE (2:1) 2/WK FOR 30 WK (STUDY DURATION: LIFETIME), Tumor Site: Type of Lesion: NERVOUS SYSTEM: TUMOR, SMALL INTESTINE: TUMOR) “active; positive”; (Species: RAT, Strain/Sex: F344/MALE, Route: ORAL, Dose: 0, 46 MG/L IN DRINKING WATER 5 D/WK FOR 30 WK (STUDY DURATION: LIFETIME), Tumor Site: Type of Lesion: LUNG: TUMOR, SKIN: TUMOR) “active; positive”.
For `ClCc1ccccc1`, the carcinogen call runs as follows: (Species: MOUSE, Strain/Sex: B6C3F1/FEMALE, Route: ORAL (GAVAGE), Dose: 0, 50, 100 MG/KG BW 3 X A WK FOR 2 YRS (TEST MATERIAL SOLVENT: CORN OIL), Dose: 0, 50, 100 MG/KG BW 3 X A WK FOR 2 YRS (TEST MATERIAL SOLVENT: CORN OIL), Tumor Site: Type of Lesion: FORESTOMACH: CARCINOMA AND PAPILLOMA, LUNG: ALVEOLAR-BRONCHIOLAR ADENOMA OR CARCINOMA (HIGH DOSE ONLY, P=0.053)) “active; positive”; (Species: MOUSE, Strain/Sex: B6C3F1/MALE, Route: ORAL (GAVAGE), Dose: 0, 50, 100 MG/KG BW 3 X A WK FOR 2 YRS (TEST MATERIAL SOLVENT: CORN OIL), Dose: 0, 50, 100 MG/KG BW 3 X A WK FOR 2 YRS (TEST MATERIAL SOLVENT: CORN OIL), Tumor Site: Type of Lesion: FORESTOMACH: CARCINOMA AND PAPILLOMA, LIVER: CARCINOMA OR ADENOMA (LOWER DOSE ONLY), CIRCULATORY SYSTEM: HEMANGIOMA OR H, Tumor Site: Type of Lesion: FORESTOMACH: CARCINOMA AND PAPILLOMA, LIVER: CARCINOMA OR ADENOMA (LOWER DOSE ONLY), CIRCULATORY SYSTEM: HEMANGIOMA OR H) “active; positive”; (Species: RAT, Route: SUBCUTANEOUS, Tumor Site: Type of Lesion: INJECTION SITE) “active; positive”; (Species: RAT, Strain/Sex: F344/FEMALE, Route: ORAL (GAVAGE), Dose: 0, 15, 30 MG/KG BW 3 X A WK FOR 2 YRS (TEST MATERIAL SOLVENT: CORN OIL), Dose: 0, 15, 30 MG/KG BW 3 X A WK FOR 2 YRS (TEST MATERIAL SOLVENT: CORN OIL), Tumor Site: Type of Lesion: THYROID: C-CELL NEOPLASMS) “active; positive”; (Species: RAT, Strain/Sex: F344/MALE, Route: ORAL (GAVAGE), Dose: 0, 15, 30 MG/KG BW 3 X A WK FOR 2 YRS (TEST MATERIAL SOLVENT: CORN OIL), Dose: 0, 15, 30 MG/KG BW 3 X A WK FOR 2 YRS (TEST MATERIAL SOLVENT: CORN OIL)) “inactive; negative”.
Regarding `Cc1cccc2c1cc(C)c1c3c(ccc12)C(O)C(O)C1OC31` (configuration not stated), the carcinogen call is “active; positive” (Species: MOUSE, Strain/Sex: ICR/FEMALE, Route: INTRAPERITONEAL, Dose: 0, 8 NMOL IN 5 µL DMSO TO PUPS ON D 1/OF LIFE THEN 16 NMOL IN 10 µL ON D 8 AND 3 NMOL IN 20 µL ON D 15 (STUDY DURATION:, Tumor Site: Type of Lesion: LUNG: TUMOR) and “active; positive” (Species: MOUSE, Strain/Sex: ICR/MALE, Route: INTRAPERITONEAL, Dose: 0, 8 NMOL IN 5 µL DMSO TO PUPS ON D 1/OF LIFE THEN 16 NMOL IN 10 µL ON D 8 AND 3 NMOL IN 20 µL ON D 15 (STUDY DURATION:, Tumor Site: Type of Lesion: LUNG: TUMOR, LIVER: TUMOR).
Turning to `c1ccc(-c2ccccc2)cc1`, the carcinogen call was “active; positive” (Species: MOUSE, Strain/Sex: CRJ:BDF1/FEMALE, Route: ORAL, Dose: 667, 2000, 6000 PPM IN DIET FOR 2 YRS (STUDY DURATION: 2 YRS), Dose: 667, 2000, 6000 PPM IN DIET FOR 2 YRS (STUDY DURATION: 2 YRS), Tumor Site: Type of Lesion: LIVER: HEPATOCELLULAR ADENOMA AND CARCINOMA); “inactive; negative” (Species: MOUSE, Strain/Sex: CRJ:BDF1/MALE, Route: ORAL, Dose: 0, 667, 2000, 6000 PPM IN DIET FOR 2 YRS (STUDY DURATION: 2 YRS), Dose: 0, 667, 2000, 6000 PPM IN DIET FOR 2 YRS (STUDY DURATION: 2 YRS)); “inactive; negative” (Species: RAT, Strain/Sex: F344/FEMALE, Route: ORAL, Dose: 0, 500, 1500, 4500 PPM IN DIET FOR 105 WK (STUDY DURATION: 105 WK ), Dose: 0, 500, 1500, 4500 PPM IN DIET FOR 105 WK (STUDY DURATION: 105 WK )); “active; positive” (Species: RAT, Strain/Sex: F344/MALE, Route: ORAL, Dose: 0, 500, 1500, 4500 PPM IN DIET FOR 105 WK (STUDY DURATION: 105 WK ), Dose: 0, 500, 1500, 4500 PPM IN DIET FOR 105 WK (STUDY DURATION: 105 WK ), Tumor Site: Type of Lesion: URINARY BLADDER: TRANSITIONAL CELL PAPILLOMA, TRANSITIONAL CELL CARCINOMA).
Turning to `CC(=O)O[C@]1(C(C)=O)CC[C@H]2[C@@H]3C=C(Cl)C4=CC(=O)[C@@H]5C[C@@H]5[C@]4(C)[C@H]3CC[C@@]21C`, the carcinogen call is, setting by setting: (Species: MOUSE, Strain/Sex: C57BL/FEMALE, Route: ORAL, Dose: 0, 800 PPM IN DIET FOR 97 WK (STUDY DURATION: 97 WK), Tumor Site: Type of Lesion: LIVER: HEPATOCELLULAR ADENOMA, HEPATOCELLULAR CARCINOMA) “active; positive”; (Species: MOUSE, Strain/Sex: C57BL/MALE, Route: ORAL, Dose: 0, 800 PPM IN DIET FOR 104 WK (STUDY DURATION: 104 WK), Tumor Site: Type of Lesion: LIVER: HEPATOCELLULAR ADENOMA, HEPATOCELLULAR CARCINOMA) “active; positive”; (Species: RAT, Strain/Sex: WISTAR/MALE, Route: GAVAGE, Dose: 0, 50 MG/KG IN TAP WATER 1/D FOR 21 D (STUDY DURATION: 79 WK)) “inactive; negative”.
In the case of `[O-][Cl+]O`, the carcinogen call is “inactive; negative” (Species: RAT, Strain/Sex: F344/FEMALE, Route: ORAL, Dose: 0, 0.03, 0.06% IN DRINKING WATER FOR 85 WK (STUDY DURATION: 85 WK), Dose: 0, 0.03, 0.06% IN DRINKING WATER FOR 85 WK (STUDY DURATION: 85 WK)) and “inactive; negative” (Species: RAT, Strain/Sex: F344/MALE, Route: ORAL, Dose: 0, 0.03, 0.06% IN DRINKING WATER FOR 85 WK (STUDY DURATION: 85 WK), Dose: 0, 0.03, 0.06% IN DRINKING WATER FOR 85 WK (STUDY DURATION: 85 WK)).
Consider `C=C(C)[C@H]1Cc2c(ccc3c2O[C@@H]2COc4cc(OC)c(OC)cc4[C@@H]2C3=O)O1`, for which the carcinogen call by setting is: (Species: MOUSE, Strain/Sex: B6C3F1/FEMALE, Route: ORAL, Dose: 0, 600, 1200 PPM IN DIET FOR 103 WK (STUDY DURATION: 105 WK), Dose: 0, 600, 1200 PPM IN DIET FOR 103 WK (STUDY DURATION: 105 WK)) “inactive; negative”; (Species: MOUSE, Strain/Sex: B6C3F1/MALE, Route: ORAL, Dose: 0, 600, 1200 PPM IN DIET FOR 103 WK (STUDY DURATION: 105 WK), Dose: 0, 600, 1200 PPM IN DIET FOR 103 WK (STUDY DURATION: 105 WK)) “inactive; negative”; (Species: RAT, Strain/Sex: F344/FEMALE, Route: ORAL, Dose: 0, 38, 75 PPM IN DIET FOR 103 WK (STUDY DURATION: 105 WK), Dose: 0, 38, 75 PPM IN DIET FOR 103 WK (STUDY DURATION: 105 WK)) “inactive; negative”; (Species: RAT, Strain/Sex: F344/MALE, Route: ORAL, Dose: 0, 38, 75 PPM IN DIET FOR 103 WK (STUDY DURATION: 105 WK), Dose: 0, 38, 75 PPM IN DIET FOR 103 WK (STUDY DURATION: 105 WK), Tumor Site: Type of Lesion: PARATHYROID GLAND: ADENOMA) “equivocal”; (Species: RAT, Strain/Sex: WISTAR/FEMALE, Route: INTRAPERITONEAL, Dose: 0, 1, 2 MG/KG IN SUNFLOWER OIL 5 D/WK FOR 8 WK (STUDY DURATION: 18 MO), Dose: 0, 1, 2 MG/KG IN SUNFLOWER OIL 5 D/WK FOR 8 WK (STUDY DURATION: 18 MO)) “inactive; negative”; (Species: RAT, Strain/Sex: WISTAR/FEMALE, Route: INTRAPERITONEAL, Dose: 0, 1, 2 MG/KG IN SUNFLOWER OIL/CHLOROFORM (9:1) 5 D/WK FOR 8 WK (STUDY DURATION: 18 MO), Dose: 0, 1, 2 MG/KG IN SUNFLOWER OIL/CHLOROFORM (9:1) 5 D/WK FOR 8 WK (STUDY DURATION: 18 MO)) “inactive; negative”.
